Test results reported in ChEMBL document CHEMBL5137056, “Micromonospora: A Prolific Source of Bioactive Secondary Metabolites with Therapeutic Potential” (J Med Chem, 2022).
Values after ≈ are worked out from the molar mass of the structure shown. One block for each compound: values may come before it.

How the values were obtained:
KB = test: Cytotoxicity against human KB cells assessed as reduction in cell viability; format: functional; details: read-out: ED50 (the source's name)
Staphylococcus aureus [1] = test: Antibacterial activity against Staphylococcus aureus NBRC12732 assessed as bacterial growth inhibition; format: functional
Staphylococcus aureus [2] = test: Antibacterial activity methicillin-resistant Staphylococcus aureus ATCC 43300 assessed as bacterial growth inhibition by microdilution method; format: functional
[3] = Inhibition of gastrulation in starfish embryo; format: functional; details: Marthasterias glacialis
[4] = system: Human immunodeficiency virus; test: Antiviral activity agianst HIV assessed as viral growth inhibition; format: functional, organism-based; details: Human immunodeficiency virus 1
[5] = Inhibition of Staphylococcus tyrS using tyrosine as substrate preincubated for 10 mins by substrate addition and measured after 2 hrs; design: species or system Staphylococcus sp.
[6] = Upregulation of glutathione level in mouse Hepa1c1c7 cells assessed as drug concentration required for double induction incubated for 48 hrs in presence of NADPH by Ellman method; format: functional
[7] = target: NAD(P)H dehydrogenase [quinone] 1 (Mus musculus) (UniProt Q64669); test: Activation of QR1 in mouse hepatoma cells incubated for 48 hrs by MTT assay; format: cell-based; details: Hepatoma cell line, filed as activator
Sequence of NAD(P)H dehydrogenase [quinone] 1 (Mus musculus) (Q64669 whole entry): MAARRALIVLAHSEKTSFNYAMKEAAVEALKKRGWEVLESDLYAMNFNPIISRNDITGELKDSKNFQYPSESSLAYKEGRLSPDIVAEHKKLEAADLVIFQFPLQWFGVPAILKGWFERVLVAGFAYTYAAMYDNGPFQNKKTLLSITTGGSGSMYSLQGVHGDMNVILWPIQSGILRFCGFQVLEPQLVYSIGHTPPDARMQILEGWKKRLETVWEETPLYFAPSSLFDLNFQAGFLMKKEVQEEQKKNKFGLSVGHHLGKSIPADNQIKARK

SMILES: COc1n/c(=C\c2ccccc2)c(=O)[nH]/c1=C\c1ccccc1
- EC50 (KB): 0.94 µg/mL (≈ 3.09 µM)

- MIC (Staphylococcus aureus [1]): 1.6 µg/mL (≈ 3.15 µM)
SMILES: CC1=C[C@@]2(C)C/C=C/[C@@H](C)[C@@H]3C=C[C@@H]4C[C@@H](C)CC[C@H]4[C@]3(C)C(=O)C3=C(O)[C@@]2(C[C@H]1C[C@@H](C)O)OC3=O

SMILES: CNC1=CC(=O)c2c(cnc(C)c2C)C1=O [MANSOURAMYCIN A]
- MIC (Staphylococcus aureus [2]): 8 µg/mL

- MIC (Staphylococcus aureus [1]): 13 µg/mL (≈ 24.8 µM)
SMILES: C[C@H]1CC[C@@H]2[C@H](C=C[C@H]3[C@H](C)/C=C/C[C@]4(C)C=C(CO)[C@H](C[C@@H](C)O)C[C@]45OC(=O)C(=C5O)C(=O)[C@@]23C)C1 [MAKLAMICIN]

SMILES: C=C/C=C/[C@H]1O[C@@](O)([C@@H](C)[C@H](O)[C@H](C)[C@H]2OC(=O)/C(OC)=C/C(C)=C/[C@@H](C)[C@@H](O)[C@@H](C)C/C(C)=C/C=C/[C@@H]2OC)C[C@@H](OC(=O)/C=C/C(=O)NC2=C(O)CCC2=O)[C@@H]1C
- MIC [3]: 0.01 µg/mL (≈ 0.0121 µM)

SMILES: CCC(C)CCCCCCCC[C@@H](O)CC(=O)N[C@@H](CCC(=O)O)C(=O)N[C@@H](CC(C)C)C(=O)N[C@H](CC(C)C)C(=O)N[C@H](C(=O)N[C@@H](CC(=O)O)C(=O)N[C@H](CC(C)C)C(=O)N[C@@H](CC(C)C)C(=O)O)C(C)C (stereo partly specified)
- IC50 [4]: 5.3 µM

SMILES: CC(C)CCCCCCCC[C@@H](O)CC(=O)N[C@@H](CCC(=O)O)C(=O)N[C@@H](CC(C)C)C(=O)N[C@H](CC(C)C)C(=O)N[C@H](C(=O)N[C@@H](CC(=O)O)C(=O)N[C@H](CC(C)C)C(=O)N[C@@H](CC(C)C)C(=O)O)C(C)C
- IC50 [4]: 5.3 µM

- IC50 [5]: < 0.001 µM
SMILES: N[C@@H](Cc1ccc(O)cc1)C(=O)N[C@H](C(=O)O)[C@H]1[C@H](O)[C@]2(O)CO[C@@H]([C@@H]2O)N1O

SMILES: C=C/C=C/[C@H]1O[C@@](O)([C@@H](C)[C@H](O)[C@H](C)[C@H]2OC(=O)/C(OC)=C/C(C)=C/[C@@H](C)[C@@H](O)[C@@H](C)C/C(C)=C/C=C/[C@@H]2OC)C[C@@H](O)[C@@H]1C
- MIC [3]: 0.01 µg/mL (≈ 0.0158 µM)

- CD [7]: 10.1 µM
SMILES: CC[C@H]1C[C@@H](C)C(=O)/C=C/[C@]2(C)O[C@H]2[C@H](C)[C@@H](CC)OC(=O)C[C@@H](O)[C@H](C)[C@H]1O[C@@H]1O[C@@H](C)[C@H](O)[C@@H](O)[C@H]1O
- CD [6]: 27.7 µM
